# Test results taken from PubChem BioAssay AID2060627 (Molecular Pharmacology Branch, DTP, NCI, 2025).
# “And” between values parts separate entries of the source, which are not always exact repeats. Equal entries are not always repeated.
# System: 156681-154-R-J1-PDC complex spheroid viability
# Test: Anticancer human tumor 156681-154-R-J1-PDC patient-derived melanoma cell line growth inhibition [CLK]
# Details: for viability, T/C: stronger effect = lower value
# Description: A high-throughput screen of multi-cell type tumor spheroids was designed to identify active combinations of […] and targeted small molecules. Complex spheroids include a stromal component modeled by human endothelial cells (HUVEC) and fibroblasts modeled by human mesenchymal stem cells (MSCs). The concentration ranges selected for each drug and investigational agent were based upon clinically achievable concentrations if the clinical Cmax of the agent was known.
# Compounds. The drugs and investigational agents: cirtuvivint (SM08502; NSC835563), CC-671 (NSC850746), vemurafenib (NSC761431), tapotoclax (NSC804041), sotorasib (NSC818433), adagrasib (NSC831453), MRTX-1133 (NSC836407), BAY2416964 (NSC825713), copanlisib (NSC816437), inavolisib (NSC800729), abemaciclib (NSC768073), osimertinib (NSC779217), entinostat (NSC756642), eltanexor (KPT-8602, NSC794443), venetoclax (NSC766270), ceralasertib (NSC777638), bortezomib (NSC756655), olaparib (NSC753686), talazoparib (NSC767125), alisertib (NSC759677), peposertib (NSC802822), gemcitabine (NSC613327), 5-fluorouracil (NSC19893), SN-38 (NSC673596), oxaliplatin (NSC266046), paclitaxel (NSC125973), and doxorubicin (NSC123127), were obtained from the National Cancer Institute (NCI) Developmental Therapeutics Program Chemical Repository. The FDA-approved anticancer drug set is available from the Developmental Therapeutics Program at https://dtp.cancer.gov/organization/dscb/obtaining/available plates.htm. […] The stock solutions were prepared in dimethyl sulfoxide (DMSO, Sigma-Aldrich, St. Louis, MO, cat. D2650), except for the platinum complexes which were prepared in saline (Quality Biological, Gaithersburg, MD, cat. 114-055-101), at 800-fold the tested concentration and stored at -70 degrees C prior to their use. All drugs and investigational agents were tested over a range starting from a high concentration at or near the clinical Cmax and decreasing in half-log increments. If the clinical Cmax for an agent had not been determined, the highest concentration tested was 10 microM.
# Cell Culture. All cells were maintained in an incubator at 37 degrees C and 5% CO2 with 95% humidity. The PDC lines were cultured according to standard operating procedures established by the NCI PDMR. Briefly, all PDCs were thawed and cultured in Matrigel-coated flasks prepared with a working solution of 1X Ham's F-12 nutrient mix, without supplementation (Invitrogen, Waltham, MA, cat. 11765054), 100 U/mL penicillin-streptomycin (Invitrogen, cat. 15140122), and 2.5% Matrigel (Corning Inc., Corning, NY, cat. 354248) for the first three passages. The 947758-054-R-J2-PDC line was cultured in 6B/Colon 1A media, which includes advanced DMEM/F-12 (Thermo Fisher Scientific, cat. 12634028), 10 mM HEPES (Thermo Fisher Scientific, cat. 15630080), 1X GlutaMAX supplement (Thermo Fisher Scientific, cat. 35050061), 0.1 mg/mL primocin (InvivoGen, cat. ant-pm-2), 10% defined fetal bovine serum, heat inactivated (HyClone Laboratories Inc., cat. SH30070.03HI), 1.25 mM N-Acetyl-L-cysteine (Sigma-Aldrich, cat. A9165), 10 mM nicotinamide (Sigma-Aldrich, cat. N0636), 1X B-27 supplement (Thermo Fisher Scientific, cat. 17504044), 1X N-2 supplement (Thermo Fisher Scientific, cat. 17502048), and 10 microM Y-27632 dihydrochloride (Tocris Bioscience, cat. 1254). The 876862-298-R-J1-PDC was cultured in 6E media, which includes all 6B/Colon 1A media components plus 50% L-WRN conditioned media (ATCC, cat. CRL-3276), 50 ng/mL recombinant human EGF recombinant protein (hEGF; Thermo Fisher Scientific, cat. PHG0311), 10 ng/mL recombinant human fibroblast growth factor 10 (hGFG-10; PeproTech, cat. 100-26), 1 ng/mL recombinant human fibroblast growth factor 2 (hFGF-2; PeproTech, cat. 100-18B), and 1 µM prostaglandin E2 (PGE2; Tocris, cat. 2296). The 227483-062-R1-J1-PDC line was cultured in Panc media, containing all 6E components except hFGF-2, with the addition of 500 nM SB-431542 (Selleckchem, cat. S1067) and 10 nM gastrin (Tocris, cat. 3006). […]
# 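Note: spheroids exposed to the agents for seven days.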
# 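Throughout, for viability, T/C: 100% = DMSO vehicle control viability.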
SMILES,"viability, T/C (compound 0.0316 µM)","viability, T/C (compound 0.1 µM)","viability, T/C (compound 0.316 µM)","viability, T/C (compound 1 µM)","viability, T/C (compound 3.16 µM)","viability, T/C (compound 10 µM)",IC50 (curve of compound),also measured
C#Cc1c(F)ccc2cc(O)cc(-c3ncc4c(N5CC6CCC(C5)N6)nc(OCC56CCCN5CC(F)C6)nc4c3F)c12 (configuration not stated),110% and 91.8%,86.9% and 94%,79.3% and 89.4%,89.2% and 83.5%,109% and 96.9%,99.2% and 101%,> 10000 nM,
C=C(F)C(=O)N1CCN(c2nc(OCC3CCCN3C)nc3c2CCN(c2cccc4cccc(Cl)c24)C3)CC1CC#N (configuration not stated),62.4% and 97.8%,68.8% and 78%,85% and 95.9%,51.9% and 90.4%,11.4% and 28.5%,1.93% and 0.2%,1100 nM and 2120 nM,
C=CC(=O)N1CCN(c2nc(=O)n(-c3c(C)ccnc3C(C)C)c3nc(-c4c(O)cccc4F)c(F)cc23)C(C)C1 (configuration not stated),99.5% and 84.9%,91.5% and 76.2%,101% and 112%,89.7% and 114%,116% and 106%,80.5% and 108%,> 10000 nM,
C=CC(=O)Nc1cc(Nc2nccc(-c3cn(C)c4ccccc34)n2)c(OC)cc1N(C)CCN(C)C,,,,,,,> 300 nM,"viability, T/C (compound 0.000949 µM): 98.3% and 114%; viability, T/C (compound 0.003 µM): 88.5% and 85.6%; viability, T/C (compound 0.00949 µM): 96.7% and 88.3%; viability, T/C (compound 0.03 µM): 101% and 96.3%; viability, T/C (compound 0.0949 µM): 93.5% and 100%; viability, T/C (compound 0.3 µM): 80.8% and 90%"
CC(C)CC(NC(=O)C(Cc1ccccc1)NC(=O)c1cnccn1)B(O)O (configuration not stated),,,,,,,< 0.949 nM,"viability, T/C (compound 0.000949 µM): 26.8% and 12.1%; viability, T/C (compound 0.003 µM): 0.63% and 0.17%; viability, T/C (compound 0.00949 µM): 0.23% and 0.71%; viability, T/C (compound 0.03 µM): 0.23% and 2.41%; viability, T/C (compound 0.0949 µM): 0.31% and 0.16%; viability, T/C (compound 0.3 µM): 2.09% and 0.42%"
CC(CO)NC(=O)c1cc(-c2ccc(Cl)cc2)nn(-c2cnn(C)c2)c1=O (configuration not stated),97.5% and 93.1%,73.8% and 82.1%,100% and 94.2%,94.3% and 99.3%,87.3% and 77.8%,51.8% and 58.1%,> 10000 nM,
CC(Nc1ccc2c(c1)OCCn1cc(N3C(=O)OCC3C(F)F)nc1-2)C(N)=O (configuration not stated),67.3% and 70.1%,65.7% and 55.4%,53.8% and 52.7%,39.9% and 37.6%,32.3% and 33.9%,23.5% and 19.5%,460 nM and 305 nM,
CC1(C)CCC(CN2CCN(c3ccc(C(=O)NS(=O)(=O)c4ccc(NCC5CCOCC5)c([N+](=O)[O-])c4)c(Oc4cnc5[nH]ccc5c4)c3)CC2)=C(c2ccc(Cl)cc2)C1,112% and 88.5%,81.5% and 88.9%,88.7% and 90.4%,101% and 94.3%,68.2% and 77.1%,4.6% and 1.6%,4390 nM and 4780 nM,
CC1COCCN1c1cc(C2(S(C)(=N)=O)CC2)nc(-c2ccnc3[nH]ccc23)n1 (configuration not stated),78.6% and 84.9%,88.3% and 97.8%,85.9% and 86.3%,61.9% and 48%,24% and 20.1%,15.4% and 13.1%,1440 nM and 956 nM,
CCCS(=O)(=O)Nc1ccc(F)c(C(=O)c2c[nH]c3ncc(-c4ccc(Cl)cc4)cc23)c1F,90.6% and 79.6%,77.4% and 59.3%,99.6% and 96.6%,92.4% and 73.8%,85.8% and 83.2%,11.3% and 6.41%,5500 nM and 4990 nM,
CCN1CCN(Cc2ccc(Nc3ncc(F)c(-c4cc(F)c5nc(C)n(C(C)C)c5c4)n3)nc2)CC1,83.9% and 84.2%,69.7% and 84.1%,66.8% and 75.8%,50.5% and 56.2%,,,> 1000 nM,"viability, T/C (compound 0.00316 µM): 82.6% and 81.5%; viability, T/C (compound 0.01 µM): 82.6% and 92.4%"
CCc1c2c(nc3ccc(O)cc13)-c1cc3c(c(=O)n1C2)COC(=O)[C@]3(O)CC,15.6% and 16.5%,21.3% and 17.4%,16.8% and 17.7%,4.59% and 4.21%,,,< 3.16 nM,"viability, T/C (compound 0.00316 µM): 38.3% and 25.9%; viability, T/C (compound 0.01 µM): 16.9% and 13.7%"
CN1CCN(c2cc(C(=O)Nc3cc4cc(-c5cnn(C)c5)ccc4cn3)ccn2)CC1,102% [middle of 12 runs],97.7% [middle of 12 runs],24.3% [middle of 12 runs],1.19% [middle of 12 runs],0.58% [middle of 11 runs],0.34% [middle of 10 runs],,"IC50 (compound alone, run of 08/14/2023): 212 nM [middle of 9 runs]"
CNC(=O)c1ccc(Nc2nc(OC3CCCC3)c3c(-c4ccc5nc(C)oc5c4)c[nH]c3n2)c(OC)c1,105% [middle of 12 runs],63% [middle of 12 runs],54.3% [middle of 12 runs],36.4% [middle of 11 runs],42.1% [middle of 12 runs],,,
COC1C=CCC(C)C(C)S(=O)(=O)NC(=O)c2ccc3c(c2)N(CC2CCC21)CC1(CCCc2cc(Cl)ccc21)CO3 (configuration not stated),86.6% and 107%,85.4% and 73.3%,86.8% and 70.1%,61.2% and 61.9%,14.6% and 10.7%,1.35% and 1.31%,1330 nM and 861 nM,
COc1c(OCCCN2CCOCC2)ccc2c3n(c(=NC(=O)c4cnc(N)nc4)nc12)CCN3,45.8% and 39.1%,19.1% and 13.5%,3.62% and 2.73%,1.16% and 0.46%,,,27 nM and 20.3 nM,"viability, T/C (compound 0.00316 µM): 73.2% and 68.2%; viability, T/C (compound 0.01 µM): 69.9% and 67.5%"
Cn1ncnc1[C@H]1c2n[nH]c(=O)c3cc(F)cc(c23)N[C@@H]1c1ccc(F)cc1,60.7% and 65.9%,57% and 63.1%,,,,,> 100 nM,"viability, T/C (compound 0.000316 µM): 87.6% and 89%; viability, T/C (compound 0.001 µM): 88.1% and 94.1%; viability, T/C (compound 0.00316 µM): 91.8% and 78.8%; viability, T/C (compound 0.01 µM): 80.4% and 83%"
NC(=O)C(=Cn1cnc(-c2cc(C(F)(F)F)cc(C(F)(F)F)c2)n1)c1cncnc1,,,,,,,73.9 nM and 34.7 nM,"viability, T/C (compound 0.00949 µM): 79.6% and 73.7%; viability, T/C (compound 0.03 µM): 67.2% and 49.7%; viability, T/C (compound 0.0949 µM): 46.6% and 36.5%; viability, T/C (compound 0.3 µM): 14.8% and 11.8%; viability, T/C (compound 0.949 µM): 6.97% and 7.35%; viability, T/C (compound 3 µM): 4.72% and 4.92%"
Nc1ccccc1NC(=O)c1ccc(CNC(=O)OCc2cccnc2)cc1,105% and 91.2%,98.8% and 108%,71.4% and 47.5%,40.7% and 27%,6.65% and 4.95%,0.46% and 0.13%,674 nM and 305 nM,
Nc1ccn(C2OC(CO)C(O)C2(F)F)c(=O)n1 (configuration not stated),14.4% and 13.7%,13.7% and 12.6%,15.7% and 16.1%,12.8% and 13.2%,16.9% and 14.6%,13.1% and 14.5%,< 31.6 nM,
O=C(c1cc(Cc2n[nH]c(=O)c3ccccc23)ccc1F)N1CCN(C(=O)C2CC2)CC1,92.3% and 97.7%,72.3% and 78.8%,72% and 85.3%,83.4% and 78.3%,72.3% and 90.1%,56.2% and 57.6%,> 10000 nM,
O=c1[nH]cc(F)c(=O)[nH]1,72.7% and 87.1%,85.4% and 88.9%,84.8% and 79.8%,91% and 90.6%,81.6% and 80.6%,34% and 35.9%,6800 nM and 7000 nM,
